Assay results taken from US11578080B2, “Thienopyrimidones” (Boehringer Ingelheim International GmbH, priority 2019, dated 2023).

Key:
[1] = Assay B: Microsomal clearance; assay type: in vitro ADME, human; conditions: pooled liver microsomes, 1 μM test compound, 37° C.
Procedure: Assay B: Microsomal Clearance:
The metabolic degradation of the test compound is assayed at 37° C. with pooled liver microsomes. The final incubation volume of 100 μl per time point contains TRIS buffer pH 7.6 at RT (0.1 M), magnesium chloride (5 mM), microsomal protein (1 mg/ml) and the test compound at a final concentration of 1 μM.
Following a short preincubation period at 37° C., the reactions are initiated by addition of beta-nicotinamide adenine dinucleotide phosphate, reduced form (NADPH, 1 mM) and terminated by transferring an aliquot into solvent after different time points (0, 5, 15, 30, 60 min). Additionally, the NADPH-independent degradation is monitored in incubations without NADPH, terminated at the last time point. The [%] remaining test compound after NADPH independent incubation is reflected by the parameter c(control) (metabolic stability). The quenched incubations are pelleted by centrifugation (10000 g, 5 min).
An aliquot of the supernatant is assayed by LC-MS/MS for the amount of parent compound. The half-life (t½ INVITRO) is determined by the slope of the semilogarithmic plot of the concentration-time profile.
The intrinsic clearance (CL_[…]) is calculated by considering the amount of protein in the incubation: CL_[…] [μl/min/mg protein]=(Ln 2/(half-life [min]*protein content [mg/ml]))*1000 CL_[…]_INVIVO [ml/min/kg]=(CL_[…] [μL/min/mg protein]×MPPGL [mg protein/g liver]×liver factor [g/kg body weight])/1000 Qh [%]=CL [ml/min/kg]/hepatic blood flow [ml/min/kg])
(§1) Hepatocellularity, human: 120×10e6 cells/g liver
(§2) Liver factor, human: 25.7 g/kg bodyweight
(§3) Blood flow, human: 21 ml/(min×kg)

[2] = target: human TRPA1 ion channel (Homo sapiens (Human), UniProt O75762); assay: Assay A: TRPA1 assay (FLIPR calcium, AITC agonism, HEK293 over-expressing human TRPA1); assay type: cell-based; conditions: HEK293 over-expressing human TRPA1, AITC 10 μM, FLIPRtetra; read-out: hTRPA1 IC50
Sequence of human TRPA1 ion channel (O75762 whole entry): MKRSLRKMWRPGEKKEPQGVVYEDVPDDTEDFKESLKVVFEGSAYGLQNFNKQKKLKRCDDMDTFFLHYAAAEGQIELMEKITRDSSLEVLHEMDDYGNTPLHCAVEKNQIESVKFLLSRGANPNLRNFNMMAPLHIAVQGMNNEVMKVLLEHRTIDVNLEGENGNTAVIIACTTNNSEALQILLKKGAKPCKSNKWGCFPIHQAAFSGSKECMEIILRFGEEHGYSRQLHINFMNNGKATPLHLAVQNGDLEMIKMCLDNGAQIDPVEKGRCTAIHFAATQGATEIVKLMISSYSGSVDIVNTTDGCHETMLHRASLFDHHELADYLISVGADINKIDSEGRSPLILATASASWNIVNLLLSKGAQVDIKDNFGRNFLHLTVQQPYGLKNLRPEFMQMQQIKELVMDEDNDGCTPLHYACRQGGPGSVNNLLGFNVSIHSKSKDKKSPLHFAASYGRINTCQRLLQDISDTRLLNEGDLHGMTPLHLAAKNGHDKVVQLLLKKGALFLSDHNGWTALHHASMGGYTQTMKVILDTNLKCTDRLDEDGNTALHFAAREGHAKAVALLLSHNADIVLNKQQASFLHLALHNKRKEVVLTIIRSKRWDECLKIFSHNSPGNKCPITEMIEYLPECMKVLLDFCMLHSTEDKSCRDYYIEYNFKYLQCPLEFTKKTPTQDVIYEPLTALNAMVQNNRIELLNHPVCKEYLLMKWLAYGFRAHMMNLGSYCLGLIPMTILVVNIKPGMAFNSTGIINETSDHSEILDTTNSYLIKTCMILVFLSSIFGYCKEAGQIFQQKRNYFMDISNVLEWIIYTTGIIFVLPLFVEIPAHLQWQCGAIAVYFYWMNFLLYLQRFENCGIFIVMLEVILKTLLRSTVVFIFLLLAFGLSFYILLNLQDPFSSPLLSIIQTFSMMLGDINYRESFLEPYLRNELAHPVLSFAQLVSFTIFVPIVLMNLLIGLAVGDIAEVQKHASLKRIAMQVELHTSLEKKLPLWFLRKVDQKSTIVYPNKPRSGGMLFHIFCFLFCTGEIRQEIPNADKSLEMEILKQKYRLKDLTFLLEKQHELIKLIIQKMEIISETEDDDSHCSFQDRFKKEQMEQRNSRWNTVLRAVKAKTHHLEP
Procedure: A human HEK293 cell line over-expressing the human TRPA1 ion channel (Perkin Elmer, Product No. AX-004-PCL) was used as a test system for compound efficacy and potency. Compound activity was determined by measuring the effect of compounds on intracellular calcium concentration induced by AITC (Allylisothiocyanat) agonism in a FLIPRtetra system (Molecular Devices).
The cells were obtained as frozen cells in cryo-vials and stored until use at −150° C. Cells were grown in culture medium (MEM/EBSS medium with 10% FCS and 0.4 mg/ML Geneticin). […] For sub-culturing cells were detached from flasks by Versene. At the day before the assay, cells were detached, washed twice with medium (MEM/EBSS medium with 10% FCS) and 20000 cells in 20 μl/well were seeded to Poly D-Lysin biocoated 384-well plates (black, clear bottom, Cat. 356697) from Corning. Plates were incubated for 24 hours at 37° C./5% CO2 before use in the assay.
The test compounds were dissolved in 100% DMSO at a concentration of 10 mM and in a first step diluted in DMSO to a concentration of 5 mM, followed by serial dilution steps in 100% DMSO. Dilution factor and number of dilution steps may vary according to needs. Typically 8 different concentrations by 1:5 dilutions were prepared, further intermediate dilutions (1:20) of the substances were carried out with HBSS/HEPES buffer (1×HEPES, Cat. 14065 from Gibco, 20 mM HEPES, Cat. 83264 from SIGMA, 0.1% BSA Cat. 11926 from Invitrogen, pH 7,4
At the assay day cells were washed 3× with assay puffer, 20 μL buffer remained in the wells after washing. 10 μL Ca6 kit (Cat. R8191 MolecularDevices) loading buffer in HBSS/HEPES was added to the cells and the plates were incubated with lid for 120 minutes at […]. 10 μL of compound or controls in HBSS/HEPES buffer/5% DMSO from the intermediate dilution plate were carefully added to the wells. […] Finally 10 μL of the agonist AITC 50 μM dissolved in HBSS/HEPES buffer/0.05% DMSO (final concentration 10 μM) was added to the wells followed by an additional read on the FLIPRtetra device for 10 minutes. The area under the signal curve (AUC) after AITC addition was used for IC50/% inhibition calculations
Data Evaluation and Calculation:
Each assay microtiter plate contained wells with vehicle (1% DMSO) controls instead of compound as controls for AITC induced luminescence (100% CTL; high controls) and wells with vehicle controls without AITC as controls for non-specific changes in luminescence (0% CTL; low controls).
The analysis of the data was performed by the calculation of the area under signal curve of the individual wells. Based on this values the % value for the measurement of each substance concentration was calculated (AUC(sample)−AUC(low))*100/(AUC(high)−AUC(low)) using MegaLab software (in house development). The IC50 values were calculated from the % control values using MegaLab software. Calculation: [y=(a−d)/(1+(x/c)^b)+d], a=low value, d=high value; x=cone M; c=IC50 M; b=hill; y=% ctrl

[3] = Assay C: Hepatocyte clearance; assay type: in vitro ADME, human; conditions: hepatocyte suspension, 1 μM test compound
Procedure: Assay C: Hepatocyte Clearance
The metabolic degradation of the test compound is assayed in a hepatocyte suspension. Hepatocytes (cryopreserved) are incubated in. Dulbecco's modified eagle medium (supplemented with 3.5 μg glucagon/500 mL, 2.5 mg insulin/500 mL and 3.75 mg/500 mL hydrocortison) containing 5% or 50% species serum.
Following a 30 min preincubation in an incubator (37° C., 10% CO2) 5 μl of test compound solution (80 μM; from 2 mM in DMSO stock solution diluted 1:25 with medium) are added into 395 μl hepatocyte suspension (cell density in the range 0.25-5 Mio cells/mL depending on the species, typically 1 Mio cells/mL; final concentration of test compound 1 μM, final DMSO concentration 0.05%).
The cells are incubated for six hours (incubator, orbital shaker) and samples (25 μl) are taken at 0, 0.5, 1, 2, 4 and 6 hours. Samples are transferred into acetonitrile and pelleted by centrifugation (5 min). The supernatant is transferred to a new 96-deepwell plate, evaporated under nitrogen and resuspended.
Decline of parent compound is analyzed by HPLC-MS/MS
CLint is calculated as follows CL_[…]=Dose/AUC=(C0/CD)/(AUD+clast/k)×1000/60. CO: initial concentration in the incubation [μM], CD: cell density of vital cells [10e6 cells/mL], AUD: area under the data [μM×h], clast: concentration of last data point [μM], k: slope of the regression line for parent decline [h-1].
The calculated in vitro hepatic intrinsic clearance can be scaled up to the intrinsic in vivo hepatic Clearance and used to predict hepatic in vivo blood clearance (CL) by the use of a liver model (well stirred model). CL_[…]_INVIVO [ml/min/kg]=(CL_[…] [μL/min/10e6 cells]×hepatocellularity [10e6 cells/g liver]×liver factor [g/kg body weight])/1000 CL [ml/min/kg]=CL_[…]_INVIVO [ml/min/kg]×hepatic blood flow [ml/min/kg]/(CL_[…]_INVIVO [ml/min/kg]+hepatic blood flow [ml/min/kg]) Qh [%]=CL [ml/min/kg]/hepatic blood flow [ml/min/kg])
as §1, §2, §3

[4] = Assay D: Metabolism in human hepatocytes in vitro; assay type: in vitro ADME; conditions: primary human hepatocytes, 10 μM
Procedure: Assay D: Metabolism in Human Hepatocytes In Vitro
The metabolic pathway of a test compound is investigated using primary human hepatocytes in suspension.
Following a 30 min preincubation in a cell culture incubator (37° C., 10% CO2), test compound solution is spiked into the hepatocyte suspension to obtain a final cell density of 1.0*10^6 to 4.0*10^6 cells/ml (depending on the metabolic turnover rate of the compound observed with primary human hepatocytes), a final test compound concentration of 10 μM, and a final DMSO concentration of 0.05%.
The cells are incubated for six hours in a cell culture incubator on a horizontal shaker, and samples are removed from the incubation after 0, 0.5, 1, 2, 4 or 6 hours, depending on the metabolic turnover rate. Samples are quenched with acetonitrile and pelleted by centrifugation. The supernatant is transferred to a 96-deepwell plate, evaporated under nitrogen and resuspended prior to bioanalysis by liquid chromatography-high resolution mass spectrometry for identification of putative metabolites.

- human LM [% Qh] [1]: <23 % Qh
- IC50 [2]: 11 nM
- human Hepatocytes [% Qh] [3]: 7 % Qh
- Major metabolite observed: Mechanism ([4]; Metabolite M1): Oxygenation
- Major metabolite observed: Mechanism ([4]; Metabolite M2): Dehydrogenation
- Major metabolite observed: Mechanism ([4]; Metabolite M3): Glucuronidation
SMILES: O=C1NCCc2c1sc1ncn(Cc3nnn(C[C@H](O)c4ccc(Cl)cc4)n3)c(=O)c21 [Example 6]
